What was measured:
[1] = test system: intracellular calcium in U-2 OS osteoblasts; assay: Changes in intracellular calcium, U-2 OS osteoblasts; type: cell-based, human; details: U-2 OS cells; 10^−4 M; Fluo-8 fluorescence, (Fmax−F0)/F0; one-way ANOVA
Description: The day before the experiment, U-2 OS, MC3T3-E1, MIN6 and cAMP-HEK cells were seeded 6 000 (for osteoblastic cell lines U-2 OS, MC3T3-E1), 10 000 (for cAMP-HEK cells) or 30 000 (MIN6) cells per well in a black 384-well format micro plate with transparent bottom (Cat.#: 142761, Nunc, Thermo Fisher Scientific, USA). On the next day, the cultivation media was exchanged for assay buffer, consisting of HBSS (Cat.#: H6648-500ML, Sigma-Aldrich, Merck, Germany), 20 mM HEPES (Cat.#: L0180-100, Biowest, France), 2.5 mM Probenecid (Cat.#: P8761, Sigma-Aldrich, Merck, Germany), adjusted for pH 7.4 and supplemented with 4.77 μM CalciFluor™ Fluo-8, AM (Cat.#: 1345980-40-6, Santa Cruz Biotechnology, USA). After 45 min incubation with assay buffer in 37°C and 5% CO2, the cells were incubated at RT in a dark place for another 15 minutes. After this time, preptin and its analogs were added by the Agilent Bravo Automated Liquid Handling Platform (Agilent Technologies, USA). The kinetics were measured by the Spark® multimode reader from Tecan (Tecan Group Ltd., Switzerland) for 10 min (approximately 45 cycles, excitation 485 nm, emission 535 nm, band width 10 nm). Before each kinetics, the background fluorescence (F0) was measured and the result was calculated as (Fmax−F0)/F0, where Fmax corresponds to the maximum response upon stimulation by the compounds. Each compound was tested in concentration 10^−4 M.

[2] = test system: mouse β-cell line βTC6-F7; details: permanent mouse β-cell line βTC6-F7; ref [8] Buchanan et al.; cited from earlier work
From the text: Cheng et al. observed an increase in insulin secretion at a glucose concentration of 25 mmol/l and Buchanan et al. used 10 mmol/l.

[3] = test system: MIN6 pancreatic beta cells; assay: Stimulation of insulin secretion, radioimmunoassay; type: cell-based, mouse; details: basal glucose 10 mmol/l, various, very high concentrations of preptin, 1 h at 37°C, RIA
Description: MIN6 cells were seeded at a density of 100 000 cells/well in 24-well culture dishes and grown for 3 days in 1 ml of complete medium. Before experiments, cells were maintained for 2 h in a glucose-free medium. Thereafter, the cells were washed twice and preincubated for 2 h at 37°C in 0.4 ml glucose-free Krebs-Ringer bicarbonate HEPES (KRBH) buffer of the following composition: 120 mM NaCl, 4.6 mM KCl, 2 mM CaCl2, 5 mM NaHCO3, 1 mM MgSO4, 0.4 mM KH2PO4, 0.15 mM Na2HPO4, BSA (0.2 % w/v), and 20 mM HEPES with pH value adjusted to 7.4 with NaOH. Next, the buffer was removed from cells and a new portion of 0.4 ml of glucose-free KRBH buffer, but with a respective concentration of glucose and/or preptin, was added to the cells, which were incubated for 1 h at 37°C. The cells were stimulated with various concentrations of D-glucose (0 and 10 mM) and the effects of various concentrations of mouse preptin were determined for 10 mM D-glucose concentration. After the stimulation, supernatants were collected from the cells and stored at −80°C before the measurement of insulin concentration.
Radioimmunoassay (RIA) kits for the measurement of rat insulin (sensitive Rat Insulin RIA Kit, Cat. # SRI-13K) content in samples were provided by EMD Millipore Corporation and were used according to the manufacturer’s instructions. Each biological sample was measured in duplicate.

hBMSC-TERT [4] = assay: Osteoblast differentiation of hBMSC-TERT, alkaline phosphatase (ALP) activity assay; type: cell-based, human; details: summary in the conclusions
Description: (§1) hBMSC-TERT were plated at a density of 20 000 cells/cm^2 (Alizarin Red S staining) and 5 000 cells/well (ALP activity assay) in MEM medium (Gibco), supplemented with 10 % FBS (Gibco) and 1 % P/S (Gibco). One day after seeding, the medium was replaced with OB induction medium, composed of basal medium, supplemented with 10 mM B-glycerophosphate (Sigma-Aldrich), 10 nM dexamethasone (Sigma-Aldrich), 50 μg/mL vitamin C (Sigma-Aldrich), 10 nM vitamin D3 (Sigma-Aldrich) and treated with 100 ng/ml, 500 ng/ml and 1 ug/ml IGF2, IGF1, IGF2, preptin or vehicle (acetic acid) as a control. The medium was changed every other day for 7 days (ALP activity assay) or 10 days (Alizarin Red S staining).
ALP activity and cell viability assay were quantified at Day 7 of OB differentiation, in order to normalize the ALP activity data to the number of viable cells.
Cell viability assay was measured using a Cell Titer-Blue Assay Reagent (Promega) at fluorescence intensity (579Ex/584Em). ALP activity was detected by absorbance at 405 nm, using p-nitrophenyl phosphate (Sigma-Aldrich) as substrate.

hBMSC-TERT [5] = assay: Osteoblast differentiation of hBMSC-TERT, Alizarin Red S staining; type: cell-based, human; details: increasing concentrations; day 10 of OB differentiation; compared to effects of IGF2 and preptin
Description: as §1
Mineralized matrix formation at Day 10 of OB differentiation was measured, using Alizarin Red S staining. Cells were fixed with 70 % ice-cold ethanol for 1 h at -20°C, before addition of Alizarin Red S Solution (AR-S) (Sigma-Aldrich). The cells were stained for 10 min at room temperature (RT). Excess dye was washed with distilled water and with phosphate buffered saline (PBS) (Gibco) to reduce nonspecific AR-S stain.

[6] = test system: human primary osteoblasts; details: 8 days, ref [17] Bosetti et al.; cited from earlier work

**Q.** Which “changes in intracellular calcium relative to non-stimulated cells” value [1] does the source give for “DVSTSQAVLPDDFPRYPVGKFFKFDTWRQSAGRL [peptide 19, native rat preptin]” here?
**A.** significant increase in intracellular calcium levels

**Q.** And the “increase of insulin secretion” value [2]?
**A.** able to increase insulin secretion

**Q.** Which “stimulation of insulin secretion” value [3] does the source give for “DVSTSQAVLPDDFPRYPVGKFFQYDTWRQSAGRL [peptide 14, native mouse preptin]” here?
**A.** did not observe a significant increase in insulin secretion

**Q.** With “IGF1: insulin-like growth factor 1, comparator hormone” as the substance, how does the “osteoblast differentiation of hBMSCs” value (hBMSC-TERT [4]) read?
**A.** only significant changes observed for IGF1

**Q.** And the “Alizarin S staining of calcified matrix” value (hBMSC-TERT [5])?
**A.** largest changes

**Q.** And the “change in ALP activity” value [6]?
**A.** only significant change in ALP activity
